# Measured values: patent US5258382A, “Tetrahydropyrrolo[1,2-a]pyrazine-4-spiro-3'-pyrrolidine derivatives, processes for the preparation thereof and pharmaceutical compositions containing the same” (Dainippon Pharmaceutical Co., Ltd., priority 1991, dated 1993)
# Where two headings read alike, the source gives them in different places.
# Experiments:
# [1] = target: T1, Aldose reductase (Sus scrofa, UniProt P80276); assay: Aldose reductase inhibitory activity (in vitro); format: biochemical, porcine
# T1 construct: Lenses isolated from porcine eyes (Tokyo Sibaura Zouki Co., Ltd., Japan) were homogenized; tissue Tokyo Sibaura Zouki Co., Ltd., Japan (porcine eyes); host or cells: porcine lens
# Method: Lenses isolated from porcine eyes (Tokyo Sibaura Zouki Co., Ltd., Japan) were homogenized with 5 mM phosphate buffer (pH 7.4) containing 2 mM mercaptoethanol, and centrifuged at 10,200 g for 10 minutes. The supernatant was sequentially precipitated with ammonium sulfate at 30%, 40% and 60% saturation. The precipitate at 60% saturation was dissolved in a homogenizing buffer and used as a crude enzyme preparation. The unit of enzyme activity was defined as the amount of enzyme which oxidized 1 μmoles of NADPH/minute under the following assay condition.
# The standard reaction mixture was composed of 100 mM phosphate buffer (pH 6.5), 0.2 mM NADPH, 1.5 mM D,L-glyceraldehyde, 0.4M lithium sulfate, enzyme solution (7.0 mU/ml) and test compounds at various concentrations. The reaction mixture was incubated at 37° C., and the decrease in absorbance at 340 nm was monitored by a spectrophotometer (Hitachi 150-20). The enzyme activity was calculated based upon the rate of decrease in the absorbance over a period of 1 minute from 1 minute after the onset of the enzyme reaction.
# [2] = test system: sorbitol accumulation; assay: Inhibitory activity on sorbitol accumulation (in vivo), sciatic nerve of streptozotocin-diabetic rats; set-up: species or system Male Wistar rats; details: for Inhibition (%) of sorbitol accumulation: oral, once a day for 5 days, sciatic nerve, 4 hours after final administration; for inhibitory activity on sorbitol accumulation relative to (±)-sorbinil: compared with (±)-sorbinil; for duration of effect: rat, in vivo
# Method: Male Wistar rats (200-250 g) were used in groups of 4 animals each. The rats were made diabetic by single i.v. injection of streptozotocin (40 mg/kg) freshly dissolved in physiological saline.
# From one week after the induction of diabetes, the rats were orally given test compounds, suspended in 0.5% tragacanth solution, once a day for 5 days. […] The activity of test compounds was expressed as the inhibition percent of sorbitol accumulation ar given doses, which was calculated according to the following equation.
# Inhibition %=(S-T)/(S-N)×100
# S: Sorbitol content in sciatic nerve from diabetic control
# T: Sorbitol content in sciatic nerve from diabetic rats given test compounds
# N: Sorbitol content in sciatic nerve from normal rats.
# [3] = Acute toxicity, oral; details: 1 g/kg oral, suspended in 0.5% tragacanth; observed for 7 days
# Text: Male ddY mice (18-25 g) were used in groups of 5 animals each. The compounds of Examples 1 (21) and 22, suspended in 0.5% tragacanth solution, were orally administered at a dose of 1 g/kg to the animals.
# [4] = crude enzyme from porcine lenses, D,L-glyceraldehyde 1.5 mM, NADPH 0.2 mM, pH 6.5, 37° C., read-out: IC50 (aldose reductase inhibitory activity)
"IC50 [1, 4] [nM]",Compound,Inhibition (%) of sorbitol accumulation ([2]; 30 mg/kg/day) [%],inhibitory activity on sorbitol accumulation relative to (±)-sorbinil [2],other results
110,O=C1CC2(C(=O)N1)C(=O)N(Cc1ccc([N+](=O)[O-])cc1)C(=O)c1cccn12 (centres unmarked) [Example 15],102.2,–,Inhibition (%) of sorbitol accumulation ([2]; 3.0 mg/kg/day): 7.4%
120,O=C1CC2(C(=O)N1)C(=O)N(Cc1ccc(F)cc1)C(=O)c1cccn12 (centres unmarked) [Example 6],55.8,–,–
37,O=C1CC2(C(=O)N1)C(=O)N(Cc1cccc(Br)c1)C(=O)c1cccn12 (centres unmarked) [Example 18],–,–,–
80,O=C1CC2(C(=O)N1)C(=O)N(Cc1ccc(C(F)(F)F)cc1)C(=O)c1cccn12 (centres unmarked) [Example 9],–,–,–
52,O=C1CC2(C(=O)N1)C(=O)N(Cc1ccccc1Br)C(=O)c1cccn12 (centres unmarked) [Example 17],–,–,–
–,"CC(=C\c1ccccc1)/C=C1/SC(=S)N(CC(=O)O)C1=O [Epalrestat, (E,E)-5-(2-methyl-3-phenyl-2-propenylidene) 4-oxo-2-thioxo-3-thiazolidineacetic acid, reference compound]",–,–,IC50 [1]: 73 nM; Inhibition (%) of sorbitol accumulation ([2]; 200 mg/kg/day): 5.7%
33,"O=C1CC2(C(=O)N1)C(=O)N(Cc1ccccc1Cl)C(=O)c1cccn12 (centres unmarked) [Example 2, 2-(2-chlorobenzyl)-[1,2,3,4-tetrahydropyrrolo[1,2-a]pyrazine-4-spiro-3'-pyrrolidine]-1,2',3,5'-tetrone]",97.1,–,Inhibition (%) of sorbitol accumulation ([2]; 3.0 mg/kg/day): 30.5%
–,"O=C1NC(=O)C2(CCOc3ccc(F)cc32)N1 (racemic) [(±)-Sorbinil, 6-fluoro-2,3-dihydrospiro[4H-1-benzopyran-4,4'-imidazolidine]-2',5'-dione, reference compound]",106.9,–,Inhibition (%) of sorbitol accumulation ([2]; 3.0 mg/kg/day): 60.7%
100,"O=C1CC2(C(=O)N1)C(=O)N(Cc1ccc(Br)cc1F)C(=O)c1cc(Br)cn12 (centres unmarked) [Example 20, 7-bromo-2-(4-bromo-2-fluorobenzyl)-[1,2,3,4-tetrahydropyrrolo[1,2-a]pyrazine-4-spiro-3'-pyrrolidine]-1,2',3,5'-tetrone]",–,–,–
47,"O=C1CC2(C(=O)N1)C(=O)N(Cc1ccc(Br)cc1)C(=O)c1cccn12 (centres unmarked) [Example 8, 2-(4-bromobenzyl)-[1,2,3,4-tetrahydropyrrolo[1,2-a]pyrazine-4-spiro-3'-pyrrolidine]-1,2',3,5'-tetrone]",–,equipotent to or more potent than (±)-sorbinil,Inhibition (%) of sorbitol accumulation ([2]; 3.0 mg/kg/day): 104.7%
72,O=C1CC2(C(=O)N1)C(=O)N(Cc1ccc(F)cc1F)C(=O)c1cccn12 (centres unmarked) [Example 10],98.0,–,Inhibition (%) of sorbitol accumulation ([2]; 3.0 mg/kg/day): 33.3%
46,COc1ccc(CN2C(=O)c3cccn3C3(CC(=O)NC3=O)C2=O)cc1 (centres unmarked) [Example 12],–,–,–
110,COc1ccc(CN2C(=O)c3cccn3C3(CC(=O)NC3=O)C2=O)cc1OC (centres unmarked) [Example 13],–,–,–
50,"O=C1CC2(C(=O)N1)C(=O)N(Cc1ccc(Br)cc1F)C(=O)c1cc(Cl)cn12 (centres unmarked) [Example 19, 2-(4-bromo-2-fluorobenzyl)-7-chloro-[1,2,3,4-tetrahydropyrrolo[1,2-a]pyrazine-4-spiro-3'-pyrrolidine]-1,2',3,5'-tetrone]",–,–,–
–,"O=C1CC2(C(=O)N1)C(=O)N(Cc1ccc(Br)cc1F)C(=O)c1cccn12 (centres unmarked) [Example 1, 2-(4-bromo-2-fluorobenzyl)-[1,2,3,4-tetrahydropyrrolo[1,2-a]pyrazine-4-spiro-3'-pyrrolidine]-1,2',3,5'-tetrone]",114.6,equipotent to or more potent than (±)-sorbinil,IC50 [1]: 50 nM; Inhibition (%) of sorbitol accumulation ([2]; 1.0 mg/kg/day): 104.7%; duration of effect [2]: long-lasting; mortality [3]: None of the mice died during this period
33,O=C1CC2(C(=O)N1)C(=O)N(Cc1ccc(Cl)cc1)C(=O)c1cccn12 (centres unmarked) [Example 7],104.6,equipotent to or more potent than (±)-sorbinil,Inhibition (%) of sorbitol accumulation ([2]; 3.0 mg/kg/day): 69.7%
40,"O=C1CC2(C(=O)N1)C(=O)N(Cc1ccc(Br)cc1F)C(=O)c1ccc(Br)n12 (centres unmarked) [Example 26, 6-bromo-2-(4-bromo-2-fluorobenzyl)-[1,2,3,4-tetrahydropyrrolo[1,2-a]pyrazine-4-spiro-3'-pyrrolidine]-1,2',3,5'-tetrone]",–,–,–
–,"O=C1CC2(C(=O)N1)C(=O)N(Cc1ccc(Br)cc1F)C(=O)c1cccn12 (single isomer, unassigned) [Example 22, an enantiomer of 2-(4-bromo-2-fluorobenzyl)-[1,2,3,4-tetrahydropyrrolo[1,2-a]pyrazine-4-spiro-3'-pyrrolidine]-1,2',3,5'-tetrone]",–,equipotent to or more potent than (±)-sorbinil,IC50 [1]: 39 nM; Inhibition (%) of sorbitol accumulation ([2]; 0.3 mg/kg/day): 77.6%; Inhibition (%) of sorbitol accumulation ([2]; 1.0 mg/kg/day): 107.3%; duration of effect [2]: long-lasting; mortality [3]: None of the mice died during this period
52,Cc1ccc(CN2C(=O)c3cccn3C3(CC(=O)NC3=O)C2=O)cc1 (centres unmarked) [Example 11],65.8,–,–
41,"O=C1CC2(C(=O)N1)C(=O)N(Cc1ccc(Cl)cc1F)C(=O)c1cccn12 (centres unmarked) [Example 16, 2-(4 chloro 2-fluorobenzyl)-[1,2,3,4-tetrahydropyrrolo[1,2-a]pyrazine-4-spiro-3'-pyrrolidine]-1,2',3,5'-tetrone]",–,equipotent to or more potent than (±)-sorbinil,Inhibition (%) of sorbitol accumulation ([2]; 1.0 mg/kg/day): 61.0%
61,O=C1CC2(C(=O)N1)C(=O)N(Cc1ccccc1F)C(=O)c1cccn12 (centres unmarked) [Example 4],–,equipotent to or more potent than (±)-sorbinil,Inhibition (%) of sorbitol accumulation ([2]; 1.0 mg/kg/day): 47.2%; Inhibition (%) of sorbitol accumulation ([2]; 10 mg/kg/day): 73.5%
99,O=C1CC2(C(=O)N1)C(=O)N(Cc1ccccc1)C(=O)c1cccn12 (centres unmarked) [Example 3],69.1,–,–
23,"O=C1CC2(C(=O)N1)C(=O)N(Cc1ccc(Cl)c(Cl)c1)C(=O)c1cccn12 (centres unmarked) [Example 24, 2-(3,4-dichlorobenzyl)-[1,2,3,4-tetrahydropyrrolo[1,2-a]pyrazine-4-spiro-3'-pyrrolidine]-1,2',3,5'-tetrone]",111.8,equipotent to or more potent than (±)-sorbinil,Inhibition (%) of sorbitol accumulation ([2]; 1.0 mg/kg/day): 70.9%
31,O=C1CC2(C(=O)N1)C(=O)N(Cc1cccc(Cl)c1)C(=O)c1cccn12 (centres unmarked) [Example 5],99.4,equipotent to or more potent than (±)-sorbinil,Inhibition (%) of sorbitol accumulation ([2]; 3.0 mg/kg/day): 44.2%
35,"O=C1CC2(C(=O)N1)C(=O)N(Cc1ccc(Br)cc1F)C(=O)c1ccc(Cl)n12 (centres unmarked) [Example 27, 2-(4 bromo-2-fluorobenzyl)-6-chloro-[1,2,3,4-tetrahydropyrrolo[1,2-a]pyrazine-4-spiro-3'-pyrrolidine]-1,2',3,5-tetrone]",–,–,–
